Assay results as given in ChEMBL document CHEMBL3044652, “Synthesis of novel 2-alkyl-4-substituted-amino-pyrazolo[3,4-d]pyrimidines as new leads for anti-bacterial and anti-cancer activity” (2013).

How the values were obtained:
Assay type in all cases: functional
[1] = system: G-361; test: Cytotoxicity against Homo sapiens (human) G361 cells assessed as cell growth at 10^-7 M by SRB assay relative to control; conditions: read-out: Activity
[2] = system: G-361; test: Cytotoxicity against Homo sapiens (human) G361 cells assessed as cell growth at 10^-5 M by SRB assay relative to control; conditions: read-out: Activity
[3] = system: Bacillus subtilis; test: Antibacterial activity against Bacillus subtilis NCIM 2545 at 20 ug/ml after 24 hr by agar diffusion method; conditions: NCIM 2545, 24 h, read-out: IZ
[4] = system: G-361; test: Cytotoxicity against Homo sapiens (human) G361 cells by SRB assay
[5] = system: G-361; test: Cytotoxicity against Homo sapiens (human) G361 cells assessed as cell growth at 10^-4 M by SRB assay relative to control; conditions: read-out: Activity
[6] = system: Staphylococcus aureus; test: Antibacterial activity against Staphylococcus aureus NCIM 5021 at 20 ug/ml after 24 hr by agar diffusion method; conditions: NCIM 5021, 24 h, read-out: IZ
[7] = system: Escherichia coli; test: Antibacterial activity against Escherichia coli NCIM 2803 at 20 ug/ml after 24 hr by agar diffusion method; conditions: NCIM 2803, 24 h, read-out: IZ
[8] = system: G-361; test: Cytotoxicity against Homo sapiens (human) G361 cells assessed as cell growth at 10^-6 M by SRB assay relative to control; conditions: read-out: Activity
[9] = system: Staphylococcus epidermidis; test: Antibacterial activity against Staphylococcus epidermidis NCIM 2493 at 20 ug/ml after 24 hr by agar diffusion method; conditions: NCIM 2493, 24 h, read-out: IZ
[10] = system: Escherichia coli; test: Antibacterial activity against Escherichia coli NCIM 2803 at 10 ug/ml after 24 hr by agar diffusion method; conditions: NCIM 2803, 24 h, read-out: IZ
[11] = system: Staphylococcus aureus; test: Antibacterial activity against Staphylococcus aureus NCIM 5021 at 10 ug/ml after 24 hr by agar diffusion method; conditions: NCIM 5021, 24 h, read-out: IZ
[12] = system: Staphylococcus epidermidis; test: Antibacterial activity against Staphylococcus epidermidis NCIM 2493 at 10 ug/ml after 24 hr by agar diffusion method; conditions: NCIM 2493, 24 h, read-out: IZ
[13] = system: Bacillus subtilis; test: Antibacterial activity against Bacillus subtilis NCIM 2545 at 10 ug/ml after 24 hr by agar diffusion method; conditions: NCIM 2545, 24 h, read-out: IZ

SMILES | growth at 0.1 µM [1] | growth at 10 µM [2] | zone of inhibition at 20 µg/mL [3] | GI50 [4] | LC50 [4] | TGI [4] | growth at 100 µM [5] | zone of inhibition at 20 µg/mL [6] | zone of inhibition at 20 µg/mL [7] | growth at 1 µM [8] | zone of inhibition at 20 µg/mL [9] | zone of inhibition at 10 µg/mL [10] | zone of inhibition at 10 µg/mL [11] | zone of inhibition at 10 µg/mL [12] | zone of inhibition at 10 µg/mL [13]
CCCCNc1ncnc2c1cnn2-c1ccccc1 | 100% | 43.4% | 13 mm | 2.1 µM | > 100 µM | 37 µM | -4.5% | 13.3 mm | 13.6 mm | 90.8% | 13.3 mm | – | – | – | –
CCCCNc1nc(C(C)C)nc2c1cnn2-c1ccccc1 | 100% | 100% | 12.8 mm | > 100 µM | > 100 µM | > 100 µM | 45.4% | 14.4 mm | 13.3 mm | 100% | 14.1 mm | 0 mm | 11 mm | 11 mm | 0 mm
CC(C)c1nc(N2CCOCC2)c2cnn(-c3ccccc3)c2n1 | 100% | 77.6% | 14.4 mm | 2.6 µM | > 100 µM | > 100 µM | 6.9% | 14.2 mm | 14.6 mm | 92.5% | 14.3 mm | 10.6 mm | 10.3 mm | 11 mm | 11.3 mm
CCCCNc1nc(C)nc2c1cnn2-c1ccccc1 | 100% | 100% | 13.8 mm | 2.4 µM | > 100 µM | > 100 µM | -30% | 14.6 mm | 14.4 mm | 100% | 14.5 mm | 11 mm | 11.3 mm | 11.1 mm | 0 mm
CCCNc1ncnc2c1cnn2-c1ccccc1 | 100% | 99.7% | 13.2 mm | > 100 µM | > 100 µM | > 100 µM | 64.8% | 12.7 mm | 13.2 mm | 100% | 13.3 mm | – | – | – | –
CC1(C)S[C@@H]2[C@H](NC(=O)[C@H](N)c3ccc(O)cc3)C(=O)N2[C@H]1C(=O)O [AMOXICILLIN] | – | – | 19 mm | – | – | – | – | 17.3 mm | 18.7 mm | – | 16.6 mm | 15.5 mm | 16.6 mm | 13 mm | 16.3 mm
